Laboratory results as given in ChEMBL document CHEMBL1201861, “Genomics of Drug Sensitity in Cancer screening data, Wellcome Trust Sanger Institute”.

The compounds below were run on MZ2-MEL (assay: cells). Details: Homo sapiens, MZ2-MEL.
Format: functional, cell-based, Homo sapiens
Description: SANGER: Inhibition of human MZ2-MEL cell growth in a cell viability assay.

**Q.** For `CC1(C)CCC(c2ccc(Cl)cc2)=C(CN2CCN(c3ccc(C(=O)NS(=O)(=O)c4ccc(N[C@H](CCN5CCOCC5)CSc5ccccc5)c(S(=O)(=O)C(F)(F)F)c4)cc3)CC2)C1` [NAVITOCLAX], which IC50 is on record?
**A.** > 2000 nM

The compounds below were run on NB5 (assay: cells). Details: Homo sapiens, NB5.
Format: functional, cell-based, Homo sapiens
Description: SANGER: Inhibition of human NB5 cell growth in a cell viability assay.

**Q.** With `CC1(C)CCC(c2ccc(Cl)cc2)=C(CN2CCN(c3ccc(C(=O)NS(=O)(=O)c4ccc(N[C@H](CCN5CCOCC5)CSc5ccccc5)c(S(=O)(=O)C(F)(F)F)c4)cc3)CC2)C1` [NAVITOCLAX] as the compound, how does the IC50 read?
**A.** > 2000 nM

These compounds were tested on NB6 (assay: cells). Details: Homo sapiens, NB6.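 Further: growth inhibition of NB6 cells, read out by a cell viability assay.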
Format: functional, cell-based, Homo sapiens
Description: SANGER: Inhibition of human NB6 cell growth in a cell viability assay.

**Q.** For `CC1(C)CCC(c2ccc(Cl)cc2)=C(CN2CCN(c3ccc(C(=O)NS(=O)(=O)c4ccc(N[C@H](CCN5CCOCC5)CSc5ccccc5)c(S(=O)(=O)C(F)(F)F)c4)cc3)CC2)C1` [NAVITOCLAX], which IC50 is on record?
**A.** > 2000 nM

These compounds were tested on NCI-H1304 (assay: cells). Details: Homo sapiens, NCI-H1304.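 Further: growth inhibition of the cancer cell line, measured in a cell viability assay.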
Format: functional, cell-based, Homo sapiens
Description: SANGER: Inhibition of human NCI-H1304 cell growth in a cell viability assay.

**Q.** Which IC50 does the source give for `CC1(C)CCC(c2ccc(Cl)cc2)=C(CN2CCN(c3ccc(C(=O)NS(=O)(=O)c4ccc(N[C@H](CCN5CCOCC5)CSc5ccccc5)c(S(=O)(=O)C(F)(F)F)c4)cc3)CC2)C1` [NAVITOCLAX] here?
**A.** 462 nM

Each compound was assayed on NCI-H1395 (assay: cells). Details: Homo sapiens, NCI-H1395.
Format: functional, cell-based, Homo sapiens
Description: SANGER: Inhibition of human NCI-H1395 cell growth in a cell viability assay.

**Q.** How did the IC50 turn out when `CC1(C)CCC(c2ccc(Cl)cc2)=C(CN2CCN(c3ccc(C(=O)NS(=O)(=O)c4ccc(N[C@H](CCN5CCOCC5)CSc5ccccc5)c(S(=O)(=O)C(F)(F)F)c4)cc3)CC2)C1` [NAVITOCLAX] was run?
**A.** > 2000 nM

The compounds below were run on NCI-H2126 (assay: cells). Details: Homo sapiens, NCI-H2126.
Format: functional, cell-based, Homo sapiens
Description: SANGER: Inhibition of human NCI-H2126 cell growth in a cell viability assay.

**Q.** How did the IC50 turn out when `CC1(C)CCC(c2ccc(Cl)cc2)=C(CN2CCN(c3ccc(C(=O)NS(=O)(=O)c4ccc(N[C@H](CCN5CCOCC5)CSc5ccccc5)c(S(=O)(=O)C(F)(F)F)c4)cc3)CC2)C1` [NAVITOCLAX] was run?
**A.** > 2000 nM

The compounds below were run on NCI-H747 (assay: cells). Details: Homo sapiens, NCI-H747.
Format: functional, cell-based, Homo sapiens
Description: SANGER: Inhibition of human NCI-H747 cell growth in a cell viability assay.

**Q.** How did the IC50 turn out when `CC1(C)CCC(c2ccc(Cl)cc2)=C(CN2CCN(c3ccc(C(=O)NS(=O)(=O)c4ccc(N[C@H](CCN5CCOCC5)CSc5ccccc5)c(S(=O)(=O)C(F)(F)F)c4)cc3)CC2)C1` [NAVITOCLAX] was run?
**A.** > 2000 nM

These compounds were tested on NKM-1 (assay: cells). Details: Homo sapiens, NKM-1.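 Further: growth inhibition of NKM-1 cells, read out with a cell viability assay.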
Format: functional, cell-based, Homo sapiens
Description: SANGER: Inhibition of human NKM-1 cell growth in a cell viability assay.

**Q.** How did the IC50 turn out when `CC1(C)CCC(c2ccc(Cl)cc2)=C(CN2CCN(c3ccc(C(=O)NS(=O)(=O)c4ccc(N[C@H](CCN5CCOCC5)CSc5ccccc5)c(S(=O)(=O)C(F)(F)F)c4)cc3)CC2)C1` [NAVITOCLAX] was run?
**A.** 17 nM

The compounds below were run on OCUB-M (assay: cells). Details: Homo sapiens.
Format: functional, cell-based
Description: SANGER: Inhibition of human OCUB-M cell growth in a cell viability assay.

**Q.** With `CC1(C)CCC(c2ccc(Cl)cc2)=C(CN2CCN(c3ccc(C(=O)NS(=O)(=O)c4ccc(N[C@H](CCN5CCOCC5)CSc5ccccc5)c(S(=O)(=O)C(F)(F)F)c4)cc3)CC2)C1` [NAVITOCLAX] as the compound, how does the IC50 read?
**A.** > 2000 nM

These compounds were tested on OVCAR-4 (assay: cells). Details: Homo sapiens, OVCAR-4.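 Further: growth inhibition of human OVCAR-4 cells, measured with a cell viability assay.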
Format: functional, cell-based, Homo sapiens
Description: SANGER: Inhibition of human OVCAR-4 cell growth in a cell viability assay.

**Q.** For `CC1(C)CCC(c2ccc(Cl)cc2)=C(CN2CCN(c3ccc(C(=O)NS(=O)(=O)c4ccc(N[C@H](CCN5CCOCC5)CSc5ccccc5)c(S(=O)(=O)C(F)(F)F)c4)cc3)CC2)C1` [NAVITOCLAX], which IC50 is on record?
**A.** > 2000 nM

These compounds were tested on RCC10RGB (assay: cells). Details: Homo sapiens, RCC10RGB.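 Further: growth inhibition of human RCC10RGB cells, read out by a cell viability assay.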
Format: functional, cell-based, Homo sapiens
Description: SANGER: Inhibition of human RCC10RGB cell growth in a cell viability assay.

**Q.** `CC1(C)CCC(c2ccc(Cl)cc2)=C(CN2CCN(c3ccc(C(=O)NS(=O)(=O)c4ccc(N[C@H](CCN5CCOCC5)CSc5ccccc5)c(S(=O)(=O)C(F)(F)F)c4)cc3)CC2)C1` [NAVITOCLAX] was tested. Which IC50 did it give?
**A.** > 2000 nM

Each compound was assayed on RXF 393 (assay: cells). Details: Homo sapiens, RXF 393.
Format: functional, cell-based, Homo sapiens
Description: SANGER: Inhibition of human RXF393 cell growth in a cell viability assay.

**Q.** For `CC1(C)CCC(c2ccc(Cl)cc2)=C(CN2CCN(c3ccc(C(=O)NS(=O)(=O)c4ccc(N[C@H](CCN5CCOCC5)CSc5ccccc5)c(S(=O)(=O)C(F)(F)F)c4)cc3)CC2)C1` [NAVITOCLAX], which IC50 is on record?
**A.** > 2000 nM

These compounds were tested on SF-126 (assay: cells). Details: Homo sapiens, SF-126.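 Further: growth inhibition of human SF126 cells, read out with a cell viability assay.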
Format: functional, cell-based, Homo sapiens
Description: SANGER: Inhibition of human SF126 cell growth in a cell viability assay.

**Q.** Which IC50 does the source give for `CC1(C)CCC(c2ccc(Cl)cc2)=C(CN2CCN(c3ccc(C(=O)NS(=O)(=O)c4ccc(N[C@H](CCN5CCOCC5)CSc5ccccc5)c(S(=O)(=O)C(F)(F)F)c4)cc3)CC2)C1` [NAVITOCLAX] here?
**A.** > 2000 nM

The compounds below were run on SH-4 (assay: cells). Details: Homo sapiens.
Format: functional, cell-based
Description: SANGER: Inhibition of human SH-4 cell growth in a cell viability assay.

**Q.** Which IC50 does the source give for `CC1(C)CCC(c2ccc(Cl)cc2)=C(CN2CCN(c3ccc(C(=O)NS(=O)(=O)c4ccc(N[C@H](CCN5CCOCC5)CSc5ccccc5)c(S(=O)(=O)C(F)(F)F)c4)cc3)CC2)C1` [NAVITOCLAX] here?
**A.** > 2000 nM

Each compound was assayed on SK-MEL-1 (assay: cells). Details: Homo sapiens, SK-MEL-1.
Format: functional, cell-based, Homo sapiens
Description: SANGER: Inhibition of human SK-MEL-1 cell growth in a cell viability assay.

**Q.** Which IC50 does the source give for `CC1(C)CCC(c2ccc(Cl)cc2)=C(CN2CCN(c3ccc(C(=O)NS(=O)(=O)c4ccc(N[C@H](CCN5CCOCC5)CSc5ccccc5)c(S(=O)(=O)C(F)(F)F)c4)cc3)CC2)C1` [NAVITOCLAX] here?
**A.** > 2000 nM

These compounds were tested on SNU-C2B (assay: cells). Details: Homo sapiens.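 Further: cell viability readout used to measure compound-driven suppression of SNU-C2B cell proliferation, IC50 marking half-maximal growth inhibition.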
Format: functional, cell-based
Description: SANGER: Inhibition of human SNU-C2B cell growth in a cell viability assay.

**Q.** How did the IC50 turn out when `CC1(C)CCC(c2ccc(Cl)cc2)=C(CN2CCN(c3ccc(C(=O)NS(=O)(=O)c4ccc(N[C@H](CCN5CCOCC5)CSc5ccccc5)c(S(=O)(=O)C(F)(F)F)c4)cc3)CC2)C1` [NAVITOCLAX] was run?
**A.** > 2000 nM

These compounds were tested on ALL-PO (assay: cells). Details: Homo sapiens, ALL-PO.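 Further: growth inhibition of ALL-PO cells, read out by a cell viability assay.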
Format: functional, cell-based, Homo sapiens
Description: SANGER: Inhibition of human ALL-PO cell growth in a cell viability assay.

**Q.** For `CC1(C)CCC(c2ccc(Cl)cc2)=C(CN2CCN(c3ccc(C(=O)NS(=O)(=O)c4ccc(N[C@H](CCN5CCOCC5)CSc5ccccc5)c(S(=O)(=O)C(F)(F)F)c4)cc3)CC2)C1` [NAVITOCLAX], which IC50 is on record?
**A.** 220 nM

The compounds below were run on BB49-HNC (assay: cells). Details: Homo sapiens, BB49-HNC.
Format: functional, cell-based, Homo sapiens
Description: SANGER: Inhibition of human BB49-HNC cell growth in a cell viability assay.

**Q.** `CC1(C)CCC(c2ccc(Cl)cc2)=C(CN2CCN(c3ccc(C(=O)NS(=O)(=O)c4ccc(N[C@H](CCN5CCOCC5)CSc5ccccc5)c(S(=O)(=O)C(F)(F)F)c4)cc3)CC2)C1` [NAVITOCLAX] was tested. Which IC50 did it give?
**A.** > 2000 nM

The compounds below were run on BE-13 (assay: cells). Details: Homo sapiens, BE-13.
Format: functional, cell-based, Homo sapiens
Description: SANGER: Inhibition of human BE-13 cell growth in a cell viability assay.

**Q.** Which IC50 does the source give for `CC1(C)CCC(c2ccc(Cl)cc2)=C(CN2CCN(c3ccc(C(=O)NS(=O)(=O)c4ccc(N[C@H](CCN5CCOCC5)CSc5ccccc5)c(S(=O)(=O)C(F)(F)F)c4)cc3)CC2)C1` [NAVITOCLAX] here?
**A.** 365 nM

What follows are compounds tested on C2BBe1 (assay: cells). Details: Homo sapiens, C2BBe1.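 Further: growth inhibition of C2BBe1 cells, read out through a viability assay.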
Format: functional, cell-based, Homo sapiens
Description: SANGER: Inhibition of human C2BBe1 cell growth in a cell viability assay.

**Q.** For `CC1(C)CCC(c2ccc(Cl)cc2)=C(CN2CCN(c3ccc(C(=O)NS(=O)(=O)c4ccc(N[C@H](CCN5CCOCC5)CSc5ccccc5)c(S(=O)(=O)C(F)(F)F)c4)cc3)CC2)C1` [NAVITOCLAX], which IC50 is on record?
**A.** > 2000 nM

What follows are compounds tested on TE-10 (assay: cells). Details: Homo sapiens, TE-10.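 Further: growth inhibition of TE-10 cells, measured by a cell viability assay.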
Format: functional, cell-based, Homo sapiens
Description: SANGER: Inhibition of human TE-10 cell growth in a cell viability assay.

**Q.** For `CC1(C)CCC(c2ccc(Cl)cc2)=C(CN2CCN(c3ccc(C(=O)NS(=O)(=O)c4ccc(N[C@H](CCN5CCOCC5)CSc5ccccc5)c(S(=O)(=O)C(F)(F)F)c4)cc3)CC2)C1` [NAVITOCLAX], which IC50 is on record?
**A.** > 2000 nM

Each compound was assayed on TGBC24TKB (assay: cells). Details: Homo sapiens.
Format: functional, cell-based
Description: SANGER: Inhibition of human TGBC24TKB cell growth in a cell viability assay.

**Q.** Which IC50 does the source give for `CC1(C)CCC(c2ccc(Cl)cc2)=C(CN2CCN(c3ccc(C(=O)NS(=O)(=O)c4ccc(N[C@H](CCN5CCOCC5)CSc5ccccc5)c(S(=O)(=O)C(F)(F)F)c4)cc3)CC2)C1` [NAVITOCLAX] here?
**A.** 458 nM

What follows are compounds tested on VA-ES-BJ (assay: cells). Details: Homo sapiens, VA-ES-BJ.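 Further: growth inhibition of the VA-ES-BJ cell line, read out by a cell viability assay.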
Format: functional, cell-based, Homo sapiens
Description: SANGER: Inhibition of human VA-ES-BJ cell growth in a cell viability assay.

**Q.** With `CC1(C)CCC(c2ccc(Cl)cc2)=C(CN2CCN(c3ccc(C(=O)NS(=O)(=O)c4ccc(N[C@H](CCN5CCOCC5)CSc5ccccc5)c(S(=O)(=O)C(F)(F)F)c4)cc3)CC2)C1` [NAVITOCLAX] as the compound, how does the IC50 read?
**A.** > 2000 nM

The compounds below were run on no-11 (assay: cells). Details: Homo sapiens.
Format: functional, cell-based, Homo sapiens
Description: SANGER: Inhibition of human no-11 cell growth in a cell viability assay.

**Q.** For `CC1(C)CCC(c2ccc(Cl)cc2)=C(CN2CCN(c3ccc(C(=O)NS(=O)(=O)c4ccc(N[C@H](CCN5CCOCC5)CSc5ccccc5)c(S(=O)(=O)C(F)(F)F)c4)cc3)CC2)C1` [NAVITOCLAX], which IC50 is on record?
**A.** > 2000 nM

Each compound was assayed on COLO-684 (assay: cells). Details: Homo sapiens, COLO-684.
Format: functional, cell-based, Homo sapiens
Description: SANGER: Inhibition of human COLO-684 cell growth in a cell viability assay.

**Q.** How did the IC50 turn out when `CC1(C)CCC(c2ccc(Cl)cc2)=C(CN2CCN(c3ccc(C(=O)NS(=O)(=O)c4ccc(N[C@H](CCN5CCOCC5)CSc5ccccc5)c(S(=O)(=O)C(F)(F)F)c4)cc3)CC2)C1` [NAVITOCLAX] was run?
**A.** > 2000 nM
